Assay results taken from article PMC9953746, “Dimeric Benzodiazepines as Peptide Mimetics to Overcome p53-Dependent Drug Resistance of Tumors” (Biomolecules, 2023).
Like-named read-outs stand apart in the source and are kept apart here. Marks after values point to notes of the source that are not given here.

Assays:
solid tumors = test system: solid tumors; set-up: method as in PMID 4959850; details: cited from earlier work
Sarcoma 180 = test system: Sarcoma 180; set-up: method as in earlier work; details: cited from earlier work
[1] = test system: Heps (liver cancer) cell line; set-up: method as in earlier work; details: cited from earlier work
[2] = test system: epidermoid carcinoma A-431; assay: MTT cell viability assay, A-431; type: cell-based, human; details: for IC50: read-out: IC50 A-431 (epidermoid cancer); for SI index: IC50 BJ/IC50 A-431: selectivity index, normal skin BJ vs A-431
Excerpt: (§1) The following cell lines were used in this study: epidermoid carcinoma A-431 (ATCC® CRL-1555), lung carcinomas A549 (ATCC® CCL-185) and NCI-H1299 (ATCC® CRL-5803), colorectal carcinomas HCT116 (ATCC® CCL-247) and HCT116p53^−/−, normal skin fibroblasts BJ (ATCC® CRL-2522), and normal lung fibroblasts MRC-5 (ATCC® CCL-171). The HCT116 p53^−/− cell line was a kind gift from Professor Bert Vogelstein (John Hopkin’s University, Baltimore, MD, USA). The remaining cell lines were purchased from ATCC (Manassas, VA, USA). The cells were cultured in minimal, Dulbecco’s modified Eagle’s, or Ham’s F-12K medium supplemented with 10% fetal bovine serum (Gibco by Thermo Fisher Scientific, Waltham, MA, USA) and grown under standard culture conditions (37°C, 5% CO2) in a humidified incubator with an oxygen concentration of 21%. All of the experiments were performed with mycoplasma-free cells.
(§2) The viability of the cells was assayed by measuring the conversion of MTT (3-(4,5-dimethylthiazol-2-yl)-2,5-diphenyltetrazolium bromide) to formazan (the rate of this reaction is proportional to the number of surviving cells). The cells were seeded in 96-well culture plates at a density of 3500–5000 cells per well 24 h before the treatment. Six wells were considered for each experimental point (technical repeats). Treatments with increasing concentrations of 10, 11, or cisplatin (0.6–80 μM) were performed for 72 h. The MTT stock solution (Sigma-Aldrich by Merck, Darmstadt, Germany) was added at a final concentration of 0.5 mg/mL. After 4 h of incubation at 37 °C, the water-insoluble formazan was dissolved in a lysis buffer containing 20% SDS, 50% DMF, 2.5% hydrochloric acid, and 2.5% acetic acid. The optical densities were measured at 570 nm using a scanning multi-well spectrophotometer (PARADIGM Detection Platform; Beckman Coulter, Brea, CA, USA). The ratio of the absorbance value of each tested group to the absorbance value of the untreated control was calculated, and each tested group’s cell viability was expressed as a percentage of the control. The cell viability assays were performed at least in triplicate using independent cell cultures.

[3] = test system: normal skin fibroblasts BJ; assay: MTT cell viability assay, BJ; type: cell-based, human; details: 72 h, read-out: IC50 BJ (normal skin)
Excerpt: as §1
as §2, with “The cell viability assays were performed at least in triplicate using independent cell cultures.” left out

lung carcinoma A549 = assay: MTT cell viability assay, A549; type: cell-based, human; details: for IC50: read-out: IC50 A549 (lung cancer)
Excerpt: as §1, §2

[4] = test system: normal lung fibroblasts MRC-5; assay: MTT cell viability assay, MRC-5; type: cell-based, human; details: read-out: IC50 MRC-5 (normal lung)
Excerpt: as §1, §2

lung carcinoma NCI-H1299 = assay: MTT cell viability assay, NCI-H1299; type: cell-based, human; details: for IC50: read-out: IC50 NCI-H1299 (lung cancer)
Excerpt: as §1, §2

[5] = test system: colorectal carcinoma HCT116; assay: MTT cell viability assay, HCT116; type: cell-based, human; details: read-out: IC50 HCT116 (colon cancer)
Excerpt: as §1
as §2, with “The cell viability assays were performed at least in triplicate using independent cell cultures.” left out

[6] = test system: colorectal carcinoma HCT116p53^−/−; assay: MTT cell viability assay, HCT116p53-/-; type: cell-based, human; details: for IC50: 72 h, read-out: IC50 HCT116p53^−/− (colon cancer); for SI index: IC50 HCT116p53^−/−/IC50 HCT116: ratio of p53 knockout to wild-type HCT116
Excerpt: as §1, §2

HCT116 cells = assay: IncuCyte live-cell imaging, cell proliferation and death assay, HCT116; type: cell-based, human; details: 40 µM; for time at which cell death starts to increase significantly, HCT116: SYTOX Green Dead Cell Stain; for confluence, HCT116: up to 72 h, untreated 90%, DMSO 84% on the third day
Excerpt: (§3) The cell proliferation and death were estimated in the IncuCyte S3 live-cell imaging system using the SYTOX™ Green Dead Cell Stain (Thermo, cat. no: S34860) and analyzed using the IncuCyte 2019B Rev2 software (Essen BioScience, Ann Arbor, MI, USA), according to the manufacturer’s instructions (https://www.sartorius.com/en/products/live-cell-imaging-analysis/live-cell-analysis-resources/live-cell-imaging-and-analsis-handbook (accessed on 21 October 2022)). The HCT116 and HCT116 p53^−/− cells were seeded in 96-well culture plates at a density of 5000 cells per well 24 h before the treatment. Four wells were considered for each experimental point. Treatments with 10, 11, cisplatin (40 μM), or dimethyl sulfoxide (which was used as a negative control at a concentration equal to the one used to dissolve 10 and 11) were carried out for up to 72 h, and images were recorded every 2 h during this time. The experiment was performed twice.

HCT116 p53^−/− cells = assay: IncuCyte live-cell imaging, cell proliferation and death assay, HCT116p53-/-; type: cell-based, human; details: 40 µM; for time at which cell death starts to increase significantly, HCT116p53^−/−: SYTOX Green Dead Cell Stain; for confluence, HCT116p53^−/−: up to 72 h, untreated 88%, DMSO 83% on the third day
Excerpt: as §3

MDA-MB-435 = test system: MDA-MB-435; set-up: method as in PMID 26594756, PMID 32095421; details: in vitro; cited from earlier work
HepG2 = test system: HepG2; set-up: method as in PMID 26594756, PMID 32095421; details: in vitro; cited from earlier work
HCT-116 = test system: HCT-116; set-up: method as in PMID 26594756, PMID 32095421; details: in vitro; cited from earlier work
Calu-3 = test system: Calu-3; set-up: method as in PMID 26594756, PMID 32095421; details: in vitro; cited from earlier work
normal IKHE cell line = test system: normal IKHE cell line; set-up: method as in PMID 26594756, PMID 32095421; details: in vitro; cited from earlier work
[7] = ratio of IC50 values vs cisplatin

SMILES: Cc1ccc2c(c1O)NC(O)C1CC(/C=C/C(N)=O)=CN1C2=O (centres unmarked) [Anthramycin, anthramycin]
- growth of solid tumors in mice (solid tumors): inhibited the growth of solid tumors in mice

SMILES: CN1c2ccccc2C(=O)n2c3ccccc3c3ccnc1c32 [evodiagenine]
- cytotoxic activity against Sarcoma 180 (Sarcoma 180): exhibits cytotoxic activity
- cytotoxic activity against Heps (liver cancer) [1]: exhibits cytotoxic activity

SMILES: O=C1NC(CSCSCC2NC(=O)c3ccc([N+](=O)[O-])cc3NC2=O)C(=O)Nc2cc([N+](=O)[O-])ccc21 (centres unmarked) [Compound 11, 3,3′-((methylenebis(sulfanediyl))bis(methylene))bis(8-nitro-3,4-dihydro-1H-benzo[e][1,4]diazepine-2,5-dione)]
- IC50 ([2]; Homo sapiens, A-431, 72 h): 3.97 ± 0.87 µM
- IC50 ([3]; Homo sapiens, Skin fibroblast): 23.1 ± 2.34 µM
- IC50 (lung carcinoma A549; Homo sapiens, A549, 72 h): 16.3 ± 4.65 µM
- SI index: IC50 MRC-5/IC50 A549 (lung carcinoma A549; selectivity index, normal lung MRC-5 vs A549): 1.86 ± 0.79 (ns) ^c (ns) ^b
- IC50 ([4]; Homo sapiens, MRC5, 72 h): 28.7 ± 7.6 µM
- IC50 (lung carcinoma NCI-H1299; Homo sapiens, NCI-H1299, 72 h): 4.91 ± 1.45 µM
- IC50 ([5]; Homo sapiens, HCT-116, 72 h): 4.9 ± 0.53 µM
- IC50 ([6]; Homo sapiens): 6.07 ± 0.9 µM
- SI index: IC50 HCT116p53^−/−/IC50 HCT116 [6]: 1.26 ± 0.3 (ns) ^c (*) ^b
- time at which cell death starts to increase significantly, HCT116 (HCT116 cells): 36 h
- confluence, HCT116 (HCT116 cells): up to 16%
- time at which cell death starts to increase significantly, HCT116p53^−/− (HCT116 p53^−/− cells): 36 h
- confluence, HCT116p53^−/− (HCT116 p53^−/− cells): up to 16%

SMILES: N#CCC[C@H]1NC(=O)c2ccccc2-n2c1nc1ccccc1c2=O [auranthine]
- cytotoxic activity against MDA-MB-435 (MDA-MB-435): no cytotoxic activities
- cytotoxic activity against HepG2 (HepG2): no cytotoxic activities
- cytotoxic activity against HCT-116 (HCT-116): no cytotoxic activities
- cytotoxic activity against Calu-3 (Calu-3): no cytotoxic activities
- cytotoxic activity against normal IKHE (normal IKHE cell line): no cytotoxic activities

SMILES: O=C1NC(CSCSCC2NC(=O)c3cc([N+](=O)[O-])ccc3NC2=O)C(=O)Nc2ccc([N+](=O)[O-])cc21 (centres unmarked) [Compound 10, 3,3′-((methylenebis(sulfanediyl))bis(methylene))bis(7-nitro-3,4-dihydro-1H-benzo[e][1,4]diazepine-2,5-dione)]
- IC50 ([2]; Homo sapiens, A-431, MTT, 72 h, mean ± SD, n = 3): 3.47 ± 0.32 µM
- SI index: IC50 BJ/IC50 A-431 [2]: 4.88 ± 1.08 (**) ^c (ns) ^b
- IC50 ([3]; Homo sapiens, Skin fibroblast, MTT, mean ± SD, n = 3): 16.7 ± 2.77 µM
- IC50 (lung carcinoma A549; Homo sapiens, A549, MTT, 72 h, mean ± SD, n = 3): 1.6 ± 0.21 µM
- times more cytotoxic than cisplatin, A549 (lung carcinoma A549; [7]): 3.72 times
- IC50 ([4]; Homo sapiens, MRC5, 72 h, MTT, 72 h, mean ± SD, n = 3): 16.9 ± 2.96 µM
- IC50 ([4]; MTT, 72 h, mean ± SD, n = 3): 16.9 ± 2.96 µM
- IC50 (lung carcinoma NCI-H1299; Homo sapiens, NCI-H1299, MTT, 72 h, mean ± SD, n = 3): 1.07 ± 0.25 µM
- times more cytotoxic than cisplatin, NCI-H1299 (lung carcinoma NCI-H1299; [7]): 5.33 times
- IC50 ([5]; Homo sapiens, HCT-116, MTT, 72 h, mean ± SD, n = 3): 5.31 ± 0.23 µM
- IC50 ([6]; Homo sapiens, MTT, mean ± SD, n = 3): 5.56 ± 0.74 µM
- SI index: IC50 HCT116p53^−/−/IC50 HCT116 [6]: 1.05 ± 0.19 (ns) ^c (*) ^b
- time at which cell death starts to increase significantly, HCT116 (HCT116 cells): 24 h
- confluence, HCT116 (HCT116 cells): up to 16%
- time at which cell death starts to increase significantly, HCT116p53^−/− (HCT116 p53^−/− cells): 24 h
- confluence, HCT116p53^−/− (HCT116 p53^−/− cells): up to 16%

SMILES: N.N.[Cl][Pt][Cl] [Cisplatin, cisplatin, reference compound]
- IC50 ([2]; MTT, 72 h, mean ± SD, n = 3): 1.56 ± 0.29 µM
- SI index: IC50 BJ/IC50 A-431 [2]: 3.26 ± 0.41 (**) ^c
- SI index: IC50 BJ/IC50 A-431 ([2]; listed as cisplatin): 3.26 ± 0.41
- IC50 ([3]; MTT, mean ± SD, n = 3): 5.06 ± 0.94 µM
- IC50 (lung carcinoma A549; MTT, 72 h, mean ± SD, n = 3): 5.95 ± 1.28 µM
- IC50 ([4]; MTT, 72 h, mean ± SD, n = 3): 4.17 ± 0.88 µM
- IC50 (lung carcinoma NCI-H1299; MTT, 72 h, mean ± SD, n = 3): 5.7 ± 0.88 µM
- IC50 ([5]; MTT, 72 h, mean ± SD, n = 3): 3.51 ± 1.16 µM
- IC50 ([6]; MTT, mean ± SD, n = 3): 10.8 ± 2.86 µM
- SI index: IC50 HCT116p53^−/−/IC50 HCT116 [6]: 3.18 ± 0.79 (*) ^c
- time of highest number of SYTOX Green positive cells, HCT116 (HCT116 cells): 48 h
- time at which cell death starts to increase significantly, HCT116 (HCT116 cells): 18 h
- confluence, HCT116 (HCT116 cells): up to 16%
- time to plateau of cell death, HCT116p53^−/− (HCT116 p53^−/− cells): about 72 h
- cell death level (SYTOX Green positive cells) at plateau, HCT116p53^−/− (HCT116 p53^−/− cells; after about 72 h): 5116.3 ± 211.41
- confluence, HCT116p53^−/− (HCT116 p53^−/− cells): up to 16%
